Assay results as given in patent US7488792B2, “Collagen-binding molecules that selectively home to tumor vasculature and methods of using same” (Burnham Institute for Medical Research, priority 2002, dated 2009).
Ends that are not written are not given here. * marks the point of attachment. FITC = O=C1OC2(c3ccc(O)cc3Oc3cc(O)ccc32)c2ccc(NC(=S)*)cc21

Columns and labels:
[1] = system: mitochondrial membranes; details: concentration of 10 μM; cited from earlier work
[2] = system: vasculature of MDA-MB-435 human breast cancer cell xenografts; experiment: In vivo homing of phage to MDA-MB-435 xenografts in nude mice (phage recovery, pfu); set-up: species or system mouse; details: co-injection
Protocol: Phage preparations (1×10^9 plaque forming units (pfu)) of CREKA (SEQ ID NO: 1)-displaying phage were injected into tumor-bearing mice and subsequently recovered from breast tumors and a variety of normal tissues. […] The CREKA (SEQ ID NO: 1) phage also homed to the vasculature of MDA-MB-435 human breast cancer cell xenografts grown in the mammary fat pad of nude mice with a 20-fold specificity over non-recombinant phage as shown in FIG. 1B.
In vivo phage display screens were performed with 65 to 75 day old transgenic MMTV PyMT mice obtained from Dr. William Muller. MDA-MB-435 tumors were generated as described in Laakkonen et al., Nat. Med. 7:751-755 (2002). Briefly, 10^6 MDA-MB-435 cells in 100 μl phosphate buffered saline (PBS) were injected into the mammary fat pad of nude mice. Tumors were grown for five weeks before the animals were used in vivo studies. In vivo phage screening was performed as described in Porkka et al., Proc. Natl. Acad. Sci., USA 99:7444-7449 (2002), with a few modifications. Briefly, mice were anesthetized with avertin and then injected intravenously with 10^9 pfu of the CX7C library. Mice were perfused through the heart with 10 ml of PBS seven minutes after the injection. […] Cell-adherent phage particles were recovered by infecting BL21 bacteria (Novagen), and the number of phage quantified by plaque assay.

[3] = target: T1, collagen IV fragment of clone #3 (SEQ ID NO: 2) (Mus musculus, UniProt P08122); experiment: Binding of phage displaying clone #3 collagen IV fragment to immobilized CREKA peptide and its competition; set-up: effect of fibronectin on phage binding (clone #3 fragment / immobilized CREKA): dose or concentration left out as unconfirmed
T1 construct: made in house; host or cells: T7 phage (modified T7Select1-2b) amplified in BLT 5615 bacteria; cDNA from mouse 4T1 cells
T1 sequence (P08122 with tags, fused parts or gaps): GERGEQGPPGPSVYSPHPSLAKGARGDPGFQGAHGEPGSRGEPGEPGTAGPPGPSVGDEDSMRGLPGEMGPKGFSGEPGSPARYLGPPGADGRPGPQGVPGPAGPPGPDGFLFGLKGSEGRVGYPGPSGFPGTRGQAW
Protocol: Expression cloning was performed essentially as described in Essler and Ruoslahti, Proc. Natl. Acad. Sci., USA 99:2252-2257 (2002). CREKA (SEQ ID NO: 1) peptide was synthesized on a Symphony synthesizer (Rainin Instruments; Emeryville, Calif.) at The Burnham Institute peptide facility, and purified by high performance liquid chromatography. […] Biotin-labeled peptide (2 mg/ml) was immobilized on a streptavidin-coated 96 well Reacti-Bind® polystyrene strip plate (Pierce; Rockford, Ill.) by coating overnight at room temperature with 100 μl of 2 mg/ml biotin-CREKA (SEQ ID NO: 1) in PBS. The wells were subsequently treated three times with 200 μl SuperBlock® blocking buffer (Pierce).
Binding assays were performed as follows. […]
For competitions with free CREKA (SEQ ID NO: 1) peptide, phage displaying the clone #3 collagen IV fragment (SEQ ID NO: 2; 1×10^7 pfu) were applied to CREKA (SEQ ID NO: 1)-coated surfaces in 96-well ELISA plates prepared as described above, and incubated for one […] in the presence of 0.01 mg, 0.05 mg, or 0.1 mg soluble CREKA (SEQ ID NO: 1) peptide in 100 μl PBS. […] After 20 washes with 100 μl PBS, phage particles were recovered by infecting BL21 bacteria, and the number of attached phage determined. Phage output was determined as a percentage of phage recovered from wells not treated with soluble peptide.

[4] = target: T2, collagen IV in MMTV-PyMT tumors (Mus musculus, UniProt P02463+P08122); experiment: Co-localization of injected FITC peptide with collagen IV immunostaining in tumors; format: in vivo; details: 100 μg injected into tail vein, 15 minutes; connective tissue surrounding tumor masses
T2 construct: from tissue; host or cells: breast tumors of MMTV PyMT mice
T2 sequence (P02463 173-1669): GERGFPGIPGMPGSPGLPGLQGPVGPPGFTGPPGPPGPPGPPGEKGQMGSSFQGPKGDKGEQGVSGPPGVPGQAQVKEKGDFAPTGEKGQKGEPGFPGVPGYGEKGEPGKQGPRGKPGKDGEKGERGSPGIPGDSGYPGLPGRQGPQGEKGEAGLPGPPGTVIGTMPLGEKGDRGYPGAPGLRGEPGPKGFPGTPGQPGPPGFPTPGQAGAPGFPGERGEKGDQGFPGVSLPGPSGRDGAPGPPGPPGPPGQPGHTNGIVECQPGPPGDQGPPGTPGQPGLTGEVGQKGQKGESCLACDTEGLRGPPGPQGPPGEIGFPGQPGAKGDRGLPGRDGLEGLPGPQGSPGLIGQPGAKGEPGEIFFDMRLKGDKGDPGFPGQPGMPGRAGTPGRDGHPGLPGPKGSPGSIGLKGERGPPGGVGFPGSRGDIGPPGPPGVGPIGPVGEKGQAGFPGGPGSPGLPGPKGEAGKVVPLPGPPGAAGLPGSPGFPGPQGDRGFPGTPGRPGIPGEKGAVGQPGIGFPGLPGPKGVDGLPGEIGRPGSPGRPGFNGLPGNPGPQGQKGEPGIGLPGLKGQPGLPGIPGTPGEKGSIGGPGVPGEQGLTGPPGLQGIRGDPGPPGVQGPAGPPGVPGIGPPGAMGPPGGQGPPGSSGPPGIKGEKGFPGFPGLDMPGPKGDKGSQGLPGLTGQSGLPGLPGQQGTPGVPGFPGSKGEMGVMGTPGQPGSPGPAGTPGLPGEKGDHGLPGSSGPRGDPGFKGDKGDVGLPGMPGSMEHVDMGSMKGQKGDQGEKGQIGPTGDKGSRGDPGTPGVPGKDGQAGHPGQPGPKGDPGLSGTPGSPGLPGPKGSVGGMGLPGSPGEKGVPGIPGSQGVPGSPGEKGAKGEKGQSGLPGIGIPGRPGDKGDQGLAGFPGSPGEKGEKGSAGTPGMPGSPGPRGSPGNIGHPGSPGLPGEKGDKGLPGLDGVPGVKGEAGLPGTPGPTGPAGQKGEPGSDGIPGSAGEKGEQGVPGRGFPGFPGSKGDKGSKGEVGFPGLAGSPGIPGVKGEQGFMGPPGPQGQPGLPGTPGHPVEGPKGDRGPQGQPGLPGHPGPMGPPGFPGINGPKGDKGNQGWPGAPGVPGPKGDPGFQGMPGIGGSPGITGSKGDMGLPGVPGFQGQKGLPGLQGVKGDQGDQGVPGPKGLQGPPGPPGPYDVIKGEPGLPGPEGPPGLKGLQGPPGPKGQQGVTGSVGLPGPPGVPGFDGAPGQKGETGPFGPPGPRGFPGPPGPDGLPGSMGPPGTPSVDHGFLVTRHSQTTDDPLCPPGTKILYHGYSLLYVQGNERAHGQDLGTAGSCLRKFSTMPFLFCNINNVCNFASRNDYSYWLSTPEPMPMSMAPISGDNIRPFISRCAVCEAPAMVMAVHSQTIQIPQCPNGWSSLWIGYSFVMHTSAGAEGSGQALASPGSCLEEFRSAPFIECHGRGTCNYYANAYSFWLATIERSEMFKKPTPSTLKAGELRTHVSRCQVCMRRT
T2 sequence (P08122 184-1707): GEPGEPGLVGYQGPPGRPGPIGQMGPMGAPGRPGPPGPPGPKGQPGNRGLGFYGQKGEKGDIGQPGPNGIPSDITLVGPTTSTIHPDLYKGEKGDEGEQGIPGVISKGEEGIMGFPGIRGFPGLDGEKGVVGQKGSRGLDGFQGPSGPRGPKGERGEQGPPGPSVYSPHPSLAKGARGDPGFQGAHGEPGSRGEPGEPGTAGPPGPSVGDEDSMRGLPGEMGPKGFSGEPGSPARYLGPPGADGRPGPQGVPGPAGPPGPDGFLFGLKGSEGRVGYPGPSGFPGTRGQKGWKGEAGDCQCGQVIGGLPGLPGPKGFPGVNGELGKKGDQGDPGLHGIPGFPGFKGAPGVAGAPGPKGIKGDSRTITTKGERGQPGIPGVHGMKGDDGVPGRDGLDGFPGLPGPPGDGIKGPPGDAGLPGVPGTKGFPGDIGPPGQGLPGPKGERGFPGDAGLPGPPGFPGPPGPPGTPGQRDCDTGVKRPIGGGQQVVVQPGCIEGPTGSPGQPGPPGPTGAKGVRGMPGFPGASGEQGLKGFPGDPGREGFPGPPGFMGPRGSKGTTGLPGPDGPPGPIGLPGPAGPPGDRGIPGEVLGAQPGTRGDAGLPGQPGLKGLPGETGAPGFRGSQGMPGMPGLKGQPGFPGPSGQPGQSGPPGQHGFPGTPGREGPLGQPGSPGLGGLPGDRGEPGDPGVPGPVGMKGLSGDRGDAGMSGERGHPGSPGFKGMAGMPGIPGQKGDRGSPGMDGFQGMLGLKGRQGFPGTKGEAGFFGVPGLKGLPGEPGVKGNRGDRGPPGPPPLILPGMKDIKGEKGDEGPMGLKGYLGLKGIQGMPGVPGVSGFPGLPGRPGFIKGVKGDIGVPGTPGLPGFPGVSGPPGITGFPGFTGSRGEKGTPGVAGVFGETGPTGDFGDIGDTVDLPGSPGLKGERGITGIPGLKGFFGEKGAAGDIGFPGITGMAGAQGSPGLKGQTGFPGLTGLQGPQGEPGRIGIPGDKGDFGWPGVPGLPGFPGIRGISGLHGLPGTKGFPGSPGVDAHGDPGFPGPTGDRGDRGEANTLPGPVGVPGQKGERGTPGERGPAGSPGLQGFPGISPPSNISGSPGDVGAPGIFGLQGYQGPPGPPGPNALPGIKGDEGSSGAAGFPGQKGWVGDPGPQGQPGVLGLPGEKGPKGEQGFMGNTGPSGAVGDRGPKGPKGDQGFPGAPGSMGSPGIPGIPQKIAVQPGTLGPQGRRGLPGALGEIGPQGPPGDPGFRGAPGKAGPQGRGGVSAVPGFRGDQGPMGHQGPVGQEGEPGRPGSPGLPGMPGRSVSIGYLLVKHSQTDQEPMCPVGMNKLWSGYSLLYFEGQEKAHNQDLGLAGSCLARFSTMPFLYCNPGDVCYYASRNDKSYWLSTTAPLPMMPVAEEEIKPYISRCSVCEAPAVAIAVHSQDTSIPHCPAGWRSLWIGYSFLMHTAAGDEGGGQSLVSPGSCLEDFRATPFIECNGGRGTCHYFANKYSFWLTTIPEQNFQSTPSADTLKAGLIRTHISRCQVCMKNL
Protocol: Localization of collagen IV was compared to the localization of CREKA (SEQ ID NO: 1) peptide in breast tumors.
Immunostaining was performed after injection of 100 μg FITC-CREKA (SEQ ID NO: 1) into the tail vein of MMTV PyMT mice. After 15 minutes, tumors were dissected, fixed, stained for collagen IV and counter-stained with DAPI essentially as follows. Collagen IV was detected by immunofluorescence as described in Engvall et al., supra, 1982, with the following modifications. Briefly, mouse tissues were fixed with 3.7% paraformaldehyde for two hours, washed with PBS, and incubated in glycine (0.01%, pH 7.4) for 12 hours to quench autofluorescence of the samples. Specimens were then treated with increasing concentrations of sucrose (12%, 15%, 18%), embedded in Tissue-Tek© (Miles Inc.), frozen, and cut into 5 μm sections. After an overnight incubation with rabbit antiserum to collagen IV (diluted 1:40 in PBS) at 4° C. (Engvall et al., supra, 1982), the sections were washed with PBS and incubated with rhodamine-labeled goat anti-rabbit antibody (DAKO) at a dilution of 1:30 for 30 minutes. After washing, the sections were mounted in 90% glycerol.

[5] = system: MMTV PyMT tumors; experiment: Tissue localization of fluorescein- and rhodamine-labeled peptide after intravenous injection; format: in vivo, mouse; details: for detection of labeled peptide in MMTV PyMT tumors / detection of labeled peptide in normal tissues: 15 minutes after intravenous injection; for detection of labeled peptide in normal tissues: brain or liver
Protocol: Similarly, fluorescein (FITC) and rhodamine labeled CREKA (SEQ ID NO: 1) peptides also were detected in MMTV PyMT tumors 15 minutes after intravenous injection but were not observed in normal tissues such as the brain or liver (compare FIG. 3A with FIGS. 3B and 3C). […] As expected, control organs such as the heart, injected with rhodamine-labeled CREKA (SEQ ID NO: 1) and FITC-tomato-lectin, which stains blood vessels, were negative for CREKA (SEQ ID NO: 1) peptide staining (see FIG. 3F).
Peptide synthesis and labeling of peptides with fluorescein and rhodamine was carried out as described in Wender et al., Proc. Natl. Acad. Sci., USA 97:13003-13008 (2000), and Oku et al., supra, 2002, and detected essentially as follows. A 1 mg/ml solution of fluorescein-labeled CREKA (SEQ ID NO: 1) peptide in PBS was injected into the tail vein of MMTV PyMT mice. After 15 minutes or two hours of circulation, mice were perfused through the heart with 10 ml PBS, and the indicated organs harvested. Tissues were dissected, fixed with 3.7% paraformaldehyde for two hours, washed with PBS, and soaked in glycine (0.01%, pH 7.4) for 12 hours. Specimens were then treated with a sucrose gradient (12%, 15%, 18%), embedded in Tissue-Tek© (Miles Inc.; Elkhardt, Ind.) and frozen. Subsequently, 5 μm sections were prepared for fluorescence microscopy, and 50 μm sections were prepared for confocal microscopy. To detect blood vessels, 100 μl of 1 mg/ml solution of fluorescein-labeled tomato lectin (Vector Labs; Burlingame, Calif.) was injected into mice in PBS.

[6] = system: tumor; experiment: In vivo tumor homing of CREKA phage with co-injection of gelatin
[7] = after two hours, localizing outside the blood vessels

D(KLAKLAK)2
mitochondrial swelling [1]: marked mitochondrial swelling

CREKA [CREKA peptide]
effect of co-injected free peptide on homing of phage displaying the control peptide [2]: did not inhibit
effect of co-injected free peptide on CREKA-displaying phage recovery from breast cancer tissue ([2]; excess of free peptide, FIG. 1B): inhibited
inhibition of clone #3 collagen IV fragment phage binding to immobilized CREKA ([3]; 0.01 mg, 0.05 mg or 0.1 mg soluble peptide in 100 μl PBS, FIG. 5A): inhibited

Fibronectin [reference compound]
effect of fibronectin on phage binding (clone #3 fragment / immobilized CREKA) ([3]; fibronectin, FIG. 5B): did not significantly reduce

FITC-CREKA: fluorescein (FITC) labeled CREKA (SEQ ID NO: 1) peptide ({FITC}-CREKA)
co-localization with collagen IV in tumors [4]: partially co-localized
detection of labeled peptide in MMTV PyMT tumors [5]: detected
distribution of labeled peptide within tumor ([5]; 15 minutes after the injection): primarily in the tumor periphery
distribution of labeled peptide within tumor [5, 7]: detected in the entire tumor
detection of labeled peptide in normal tissues [5]: not observed

gelatin
effect of co-injection on in vivo tumor homing of CREKA-expressing phage [6]: completely blocked

rhodamine-labeled CREKA: rhodamine labeled CREKA (SEQ ID NO: 1) peptide (also: rhodamine label, site not given here)
detection of labeled peptide in MMTV PyMT tumors [5]: detected
distribution of labeled peptide within tumor ([5]; 15 minutes after the injection): primarily in the tumor periphery
distribution of labeled peptide within tumor [5, 7]: detected in the entire tumor
detection of labeled peptide in normal tissues [5]: not observed
CREKA peptide staining in heart ([5]; heart, co-injected with FITC-tomato-lectin, FIG. 3F): negative
